Measurements reported in ChEMBL document CHEMBL1212867, “Anhydrotetracycline-peptide conjugates as representatives for ligand-based transactivating systems” (Bioorg Med Chem, 2010).
Non-standard residues stand in square brackets, D forms with d. Residues, ends and D or L forms follow the SMILES beside them. *: point of attachment. X1 = Cc1c2c(c(O)c3c(O)c(N*)ccc13)C(=O)[C@]1(O)C(=O)C(C(N)=O)=C(O)[C@@H](N(C)C)[C@@H]1C2; AEEEA = NCCOCCOCCOCC(=O)O

Legend:
[1] = tested on: HeLa; assay: Transactivation of Reverse transactivator Tet repressor-S3 SL439, FG442, SL444 and FA475 mutant expressed in human HeLa cells at 5 uM after 24 hrs by luciferase reporter gene assay relative to untreated basal level; format: cell-based
[2] = tested on: HeLa; assay: Transactivation of reverse transactivator Tet repressor-S3 expressed in human HeLa cells at 5 uM after 24 hrs by luciferase reporter gene assay relative to anhydrotetracycline; format: cell-based

| SMILES | fold change (FC) [1] | Activity [2] [%] |
| --- | --- | --- |
| Cc1c2c(c(O)c3c(O)cccc13)C(=O)[C@]1(O)C(=O)C(C(N)=O)=C(O)[C@@H](N(C)C)[C@@H]1C2 | 3 | – |
| CSCC[C@H](NC(=O)[C@H](CC(=O)O)NC(=O)[C@H](CC(C)C)NC(=O)[C@H](CC(=O)O)NC(=O)[C@H](Cc1ccccc1)NC(=O)[C@@H](N)CC(=O)O)C(=O)N[C@@H](CC(C)C)C(=O)NCC(=O)NCCOCCOCCOCC(=O)Nc1ccc2c(C)c3c(c(O)c2c1O)C(=O)[C@]1(O)C(=O)C(C(N)=O)=C(O)[C@@H](N(C)C)[C@@H]1C3 (H-DFDLDMLG[AEEEA]-X1) | – | 150 |
| CSCC[C@H](NC(=O)[C@H](CC(=O)O)NC(=O)[C@H](CC(C)C)NC(=O)[C@H](CC(=O)O)NC(=O)[C@H](Cc1ccccc1)NC(=O)[C@H](CC(=O)O)NC(=O)CNC(=O)[C@H](CC(C)C)NC(=O)[C@H](CCSC)NC(=O)[C@H](CC(=O)O)NC(=O)[C@H](CC(C)C)NC(=O)[C@H](CC(=O)O)NC(=O)[C@H](Cc1ccccc1)NC(=O)[C@H](CC(=O)O)NC(=O)COCCOCCOCCN)C(=O)N[C@@H](CC(C)C)C(=O)NCC(=O)NCCOCCOCCOCC(=O)Nc1ccc2c(C)c3c(c(O)c2c1O)C(=O)[C@]1(O)C(=O)C(C(N)=O)=C(O)[C@@H](N(C)C)[C@@H]1C3 (H-[AEEEA]DFDLDMLGDFDLDMLG[AEEEA]-X1) | 9 | 190 |
